In brackets after ≈: the same amount, converted by molar mass. Square brackets hold non-standard residues; d marks the D form. Peptide text beside a SMILES is read from it. * marks the point of attachment. NH(β-GlcNAc) = CC(=O)N[C@@H]1[C@@H](O)[C@H](O)[C@@H](CO)O[C@H]1N*; dTrp(5-OMe) = COc1ccc2[nH]cc(C[C@@H](N)C(=O)O)c2c1
Columns and labels:
[1] = system: MRPA (P. aeruginosa) CCARM 2180; assay type: cell-based, Pseudomonas aeruginosa; settings: CCARM 2180, 18 h
Procedure: (§1) The minimum growth inhibitory concentrations of the antibacterial peptides of the present invention weremeasured, and the results are shown in Table 3 below.
(§2) Specifically, the strains were grown in CAMHB until the midlog phase, and then diluted with PBS buffer to 1× 10^6 cfu/ml to prepare the bacterial solution, and the antibacterial peptide prepared in Example 1above was diluted with CAMHB to 80 µM, 40 µM, 20 µM, 10 µM, 5 µM, 2.5 µM, 1.25 µM and 0.63 µM, and then the bacterial solution was treated with the same volume.
(§3) The results are the average value of three independent experiments.

[2] = system: MRSA (S. aureus) KCCM 40510; assay type: cell-based, Staphylococcus aureus; settings: KCCM 40510, 18 h
Procedure: as §1, §2, §3

[3] = system: VRE (E. faecalis) ATCC 51575; assay type: cell-based, Enterococcus faecalis; settings: ATCC 51575, 18 h
Procedure: as §1, §2, §3

[4] = system: MRAB (A. baumannii) ATCC BAA 1605; assay type: cell-based, Acinetobacter baumannii; settings: ATCC BAA 1605, 18 h
Procedure: as §1, §2, §3

MIC MRPA (P. aeruginosa) CCARM 2180 [1] [µM] | MIC MRSA (S. aureus) KCCM 40510 [2] [µM] | MIC VRE (E. faecalis) ATCC 51575 [3] [µM] | MIC MRAB (A. baumannii) ATCC BAA 1605 [4] [µM] | Compound
10 (≈ 15 µg/mL) | 1.25 (≈ 1.87 µg/mL) | 2.5 (≈ 3.74 µg/mL) | 1.25 (≈ 1.87 µg/mL) | CC[C@@H](C)[C@@H](NC(=O)[C@@H](Cc1c[nH]c2ccccc12)NC(=O)[C@@H](CC(C)C)NC(=O)[C@@H](CC(C)C)NC(=O)[C@H](N)Cc1c[nH]c2ccc(OC)cc12)C(=O)NCC(=O)N[C@H](CC(C)C)C(=O)N[C@H](CCCNC(=N)N)C(=O)N[C@H](CCCCN)C(=O)N[C@H](CCCCN)C(=O)N[C@H](CCCNC(=N)N)C(N)=O [KSH15, wMllwiglrkkr] (H-[dTrp(5-OMe)][dL][dL][dW][dI]G[dL][dR][dK][dK][dR]-NH2; N-terminus assumed)
10 (≈ 18.2 µg/mL) | 2.5 (≈ 4.54 µg/mL) | 2.5 (≈ 4.54 µg/mL) | 1.25 (≈ 2.27 µg/mL) | CC[C@@H](C)[C@@H](NC(=O)[C@@H](Cc1c[nH]c2ccccc12)NC(=O)[C@@H](CCCNC(=N)N)NC(=O)[C@@H](CCCNC(=N)N)NC(=O)[C@@H](CCCNC(=N)N)NC(=O)[C@@H](N)CC(=O)N[C@@H]1O[C@H](CO)[C@@H](O)[C@H](O)[C@H]1NC(C)=O)C(=O)N[C@H](Cc1c[nH]c2ccccc12)C(=O)N[C@@H](C(=O)N[C@H](CC(C)C)C(=O)N[C@H](Cc1c[nH]c2ccccc12)C(=O)N[C@H](CCCCN)C(N)=O)C(C)C [KSH47, Nrrrwiwvlwk] (H-D(NH(β-GlcNAc))[dR][dR][dR][dW][dI][dW][dV][dL][dW][dK]-NH2; N-terminus assumed)
2.5 (≈ 4.54 µg/mL) | 2.5 (≈ 4.54 µg/mL) | 2.5 (≈ 4.54 µg/mL) | 0.63 (≈ 1.14 µg/mL) | CC[C@@H](C)[C@@H](NC(=O)[C@@H](Cc1c[nH]c2ccccc12)NC(=O)[C@@H](CCCNC(=N)N)NC(=O)[C@@H](CCCNC(=N)N)NC(=O)[C@H](N)CCCNC(=N)N)C(=O)N[C@H](Cc1c[nH]c2ccccc12)C(=O)N[C@@H](C(=O)N[C@H](CC(C)C)C(=O)N[C@H](Cc1c[nH]c2ccccc12)C(=O)N[C@H](CCCCN)C(=O)N[C@@H](CC(=O)N[C@@H]1O[C@H](CO)[C@@H](O)[C@H](O)[C@H]1NC(C)=O)C(N)=O)C(C)C [KSH48, rrrwiwvlwkN] (H-[dR][dR][dR][dW][dI][dW][dV][dL][dW][dK]D(NH(β-GlcNAc))-NH2; N-terminus assumed)
10 (≈ 17.1 µg/mL) | 1.25 (≈ 2.14 µg/mL) | 1.25 (≈ 2.14 µg/mL) | 2.5 (≈ 4.27 µg/mL) | CC(=O)N[C@@H]1[C@@H](O)[C@H](O)[C@@H](CO)O[C@H]1NC(=O)C[C@H](NC(=O)[C@@H](CCCNC(=N)N)NC(=O)[C@@H](CCCNC(=N)N)NC(=O)[C@@H](CCCNC(=N)N)NC(=O)[C@@H](Cc1c[nH]c2ccccc12)NC(=O)[C@H](NC(=O)[C@H](NC(=O)[C@@H](Cc1c[nH]cn1)NC(=O)[C@H](NC(=O)[C@H](NC(=O)[C@H](N)Cc1c[nH]c2ccccc12)C(C)C)C(C)C)C(C)C)C(C)C)C(N)=O [KSH49, wvvhvvwrrrN] (H-[dW][dV][dV][dH][dV][dV][dW][dR][dR][dR]D(NH(β-GlcNAc))-NH2; N-terminus assumed)
2.5 (≈ 3.96 µg/mL) | 1.25 (≈ 1.98 µg/mL) | 1.25 (≈ 1.98 µg/mL) | 0.63 (≈ 0.999 µg/mL) | CC[C@@H](C)[C@@H](NC(=O)[C@@H](Cc1c[nH]c2ccccc12)NC(=O)[C@@H](CCCNC(=N)N)NC(=O)[C@@H](CCCNC(=N)N)NC(=O)[C@H](N)CCCNC(=N)N)C(=O)N[C@H](Cc1c[nH]c2ccccc12)C(=O)N[C@H](Cc1c[nH]c2ccccc12)C(=O)N[C@H](CC(C)C)C(=O)N[C@H](Cc1c[nH]c2ccccc12)C(=O)N[C@H](CCCCN)C(N)=O [KSH50, rrrwiwwlwk] (H-[dR][dR][dR][dW][dI][dW][dW][dL][dW][dK]-NH2; N-terminus assumed)
5 (≈ 7.78 µg/mL) | 1.25 (≈ 1.95 µg/mL) | 1.25 (≈ 1.95 µg/mL) | 1.25 (≈ 1.95 µg/mL) | CC[C@@H](C)[C@@H](NC(=O)[C@@H](Cc1c[nH]c2ccccc12)NC(=O)[C@@H](CCCCN)NC(=O)[C@@H](CCCNC(=N)N)NC(=O)[C@H](N)CCCNC(=N)N)C(=O)N[C@H](Cc1c[nH]c2ccccc12)C(=O)N[C@H](Cc1c[nH]c2ccccc12)C(=O)N[C@H](CC(C)C)C(=O)N[C@H](Cc1c[nH]c2ccccc12)C(=O)N[C@H](CCCCN)C(N)=O [KSH51, rrkwiwwlwk] (H-[dR][dR][dK][dW][dI][dW][dW][dL][dW][dK]-NH2; N-terminus assumed)
5 (≈ 9.07 µg/mL) | 5 (≈ 9.07 µg/mL) | 5 (≈ 9.07 µg/mL) | 1.25 (≈ 2.27 µg/mL) | CC[C@@H](C)[C@@H](NC(=O)[C@@H](Cc1c[nH]c2ccccc12)NC(=O)[C@@H](CCCCN)NC(=O)[C@@H](CCCNC(=N)N)NC(=O)[C@H](N)CCCNC(=N)N)C(=O)N[C@H](Cc1c[nH]c2ccccc12)C(=O)N[C@H](Cc1c[nH]c2ccccc12)C(=O)N[C@H](CC(C)C)C(=O)N[C@H](Cc1c[nH]c2ccccc12)C(=O)N[C@H](CCCCN)C(=O)N[C@H](CCCCN)C(=O)N[C@H](CCCCN)C(N)=O [KSH52, rrkwiwwlwkkk] (H-[dR][dR][dK][dW][dI][dW][dW][dL][dW][dK][dK][dK]-NH2; N-terminus assumed)
2.5 (≈ 3.42 µg/mL) | 0.63 (≈ 0.863 µg/mL) | 0.63 (≈ 0.863 µg/mL) | 0.63 (≈ 0.863 µg/mL) | CC[C@@H](C)[C@@H](NC(=O)[C@@H](Cc1c[nH]c2ccccc12)NC(=O)[C@@H](CCCNC(=N)N)NC(=O)[C@H](N)CCCNC(=N)N)C(=O)N[C@H](Cc1c[nH]c2ccccc12)C(=O)N[C@@H](C(=O)N[C@H](CC(C)C)C(=O)N[C@H](Cc1c[nH]c2ccccc12)C(=O)N[C@H](CCCNC(=N)N)C(N)=O)C(C)C [KSH54, rrwiwvlwr] (H-[dR][dR][dW][dI][dW][dV][dL][dW][dR]-NH2; N-terminus assumed)
2.5 (≈ 3.42 µg/mL) | 0.63 (≈ 0.863 µg/mL) | 0.63 (≈ 0.863 µg/mL) | 0.63 (≈ 0.863 µg/mL) | CC[C@@H](C)[C@@H](NC(=O)[C@@H](Cc1c[nH]c2ccccc12)NC(=O)[C@@H](CCCNC(=N)N)NC(=O)[C@H](N)CCCNC(=N)N)C(=O)N[C@H](Cc1c[nH]c2ccccc12)C(=O)N[C@@H](C(=O)N[C@H](CC(C)C)C(=O)N[C@H](Cc1c[nH]c2ccccc12)C(=O)N[C@@H](CCCNC(=N)N)C(N)=O)C(C)C [KSH55, rrwiwvlwR] (H-[dR][dR][dW][dI][dW][dV][dL][dW]R-NH2; N-terminus assumed)

Reference: patent US20230287044A1, “NOVEL ANTIBACTERIAL PEPTIDE AND USE THEREOF” (priority 2020, published 2023)
